Data: patent US6348190B1, “Pharmaceutical compositions with antimicrobial activity” (Richter Gedeon Vegyeszeti Gyar Rt., priority 1996, dated 2002)

Columns and labels:
the bacteria tested = experiment: Seventh series: sterility examination after termination of the 72 hours trial; type: cell-based; conditions: sterility examination after the 72 hours trial
From the text: It can be observed that a nearly immediate effect occurs after inoculation.

Staphylococcus aureus = experiment: Second series: number of germs against prolonged time in 0.1% solutions; type: cell-based; conditions: 0.1% solution; for number of test organisms: Staphylococcus aureus
Protocol: (§1) Zinc and sodium hyaluronate solutions of […] (obtained by diluting solutions of 0.5% prepared according to Examples 1 and 2) were artificially infected by the identical germ count of various test organisms and the changing of the number of germs was taken against time. The number of germs was determined in a point of time by plating method. The evaluation was visually carried out at moulds and by using an automated colony counter at bacteria and fungi.
(§2) The effects of 0.1% zinc hyaluronate and sodium hyaluronate solutions, respectively on three distinguished test organisms are illustrated in Table 3.

Salmonella sp = experiment: as above; type: cell-based; conditions: 0.1% solution; for number of test organisms: Salmonella sp
Protocol: as §1, §2

Escherichia coli = experiment: Fifth series: MIC and CID by serial dilution; type: cell-based; conditions: serial dilution from 0.2% solution
Protocol: (§3) The antibacterial effect of zinc hyaluronate associate can be characterized by the following values of the minimum inhibitory concentration (MIC) and microbicidal concentration (CID) in comparison to the corresponding values of sodium hyaluronate.
(§4) MIC and CID values were determined by using solutions of 0.2% concentration. The determinations were conducted in a known way: a serial dilution was prepared from the substances to be tested and these solutions were artificially infected by the corresponding dilutions of the selected test organisms. After incubation at a suitable temperature for an appropriate time, the concentration series was visually evaluated and the minimum concentration was determined, which inhibited the growth of microorganisms (MIC value), or induced the death of the microorganisms (CID value).

Streptococcus sp = experiment: Fifth series: MIC and CID by serial dilution; type: cell-based; conditions: serial dilution from 0.2% solution
Protocol: as §3, §4

Salmonella = experiment: Fifth series: MIC and CID by serial dilution; type: cell-based; conditions: serial dilution from 0.2% solution
Protocol: as §3, §4

Pseudomonas aeruginosa [1] = experiment: Second series: number of germs against prolonged time in 0.1% solutions; type: cell-based; conditions: 0.1% solution
Protocol: as §1, §2

Pseudomonas aeruginosa [2] = experiment: Third series: effect of solutions of various concentrations on Pseudomonas aeruginosa; type: cell-based
Protocol: as §1
Due to the ophthalmological importance of Pseudomonas aeruginosa, the effects of zinc hyaluronate solutions of various concentrations on Pseudomonas aeruginosa were studied in comparison to sodium hyaluronate solutions of the same concentrations.

[3] = tested on: Helicobacter pylori strain 822/96; experiment: Eighth series: MIC on Helicobacter pylori, agar with 10% bovine blood; type: cell-based
Protocol: These investigations were carried out by using 1.0 weight/vol. % zinc hyaluronate solution on Helicobacter pylori strains cultivated from the gastric is biopsy samples of patients suffering from various ulcers. An 1% solution of De-Nol (colloidal bismuth subcitrate) was used as reference substance. Agar culture medium (nutrient medium) supplemented with 10% of bovine blood was used for the investigations. Plates without compound to be tested were used as controls. The inoculated plates were incubated for 3 to 5 days at 37° C. in a gaseous environment containing 5% of oxygen and 7 to 8% of carbon dioxide. The value of minimum inhibitory concentration (MIC) was considered to be the minimum concentration of substances totally inhibiting the propagation of bacteria well-growing on the control plates.

Staphylococcus areus = experiment: Fifth series: MIC and CID by serial dilution; type: cell-based, Staphylococcus aureus; conditions: serial dilution from 0.2% solution
Protocol: as §3, §4

For “cobalt(II) hyaluronate [cobalt hyaluronate]”, the “character of the effect (static or bactericidal)” value (the bacteria tested) was “bactericidal effect”.
In the case of sodium hyaluronate [reference compound], the “number of test organisms” value (Staphylococcus aureus; 0 hr) is reported as 1.3 × 10^6 Test-organism/ml, the “number of test organisms” value (Staphylococcus aureus; 24 hrs) is reported as 4.1 × 10^6 Test-organism/ml and the “number of test organisms” value (Staphylococcus aureus; 48 hrs) is reported as 6.2 × 10^6 Test-organism/ml. For the same substance, the “number of test organisms” value (Staphylococcus aureus; 72 hrs) was 8.4 × 10^6 Test-organism/ml, the “course of the count over the test time (in words)” value (Staphylococcus aureus; Staphylococcus) was “remained practically within the same order” and the “number of test organisms” value (Salmonella sp; 0 hr) was 8.0 × 10^6 Test-organism/ml. The “number of test organisms” value (Salmonella sp; 24 hrs) was 8.1 × 10^6 Test-organism/ml, the “number of test organisms” value (Salmonella sp; 48 hrs) was 1.2 × 10^6 Test-organism/ml and the “number of test organisms” value (Salmonella sp; 72 hrs) was 1.8 × 10^6 Test-organism/ml. The “course of the count over the test time (in words)” value (Salmonella sp; Salmonella) was “remained practically within the same order”.
zinc hyaluronate was tested, and the “CID (microbicidal concentration)” value (Escherichia coli) was 310 µg/mL, the “MIC (minimum inhibitory concentration)” value (Escherichia coli) was 26 µg/mL and the “CID (microbicidal concentration)” value (Streptococcus sp) was 400 µg/mL. The “MIC (minimum inhibitory concentration)” value (Streptococcus sp) was 96 µg/mL, the “CID (microbicidal concentration)” value (Salmonella) was 160 µg/mL and the “MIC (minimum inhibitory concentration)” value (Salmonella) was 5.4 µg/mL. For the same substance, the “number of test organisms” value (Staphylococcus aureus; 0 hr) was 4.2 × 10^6 Test-organism/ml, the “number of test organisms” value (Staphylococcus aureus; 24 hrs) was 4.6 × 10^6 Test-organism/ml and the “number of test organisms” value (Staphylococcus aureus; 48 hrs) was 0 Test-organism/ml. The “number of test organisms” value (Staphylococcus aureus; 72 hrs) was 0 Test-organism/ml, the “number of test organisms” value (Staphylococcus aureus; 96 hrs) was 0 Test-organism/ml and the “number of test organisms” value (Staphylococcus aureus; 168 hrs) was 0 Test-organism/ml. The “time until count reduced to zero” value (Staphylococcus aureus; Staphylococcus) was ≤ 48 h, the “number of test organisms” value (Salmonella sp; 0 hr) was 2.0 × 10^6 Test-organism/ml and the “number of test organisms” value (Salmonella sp; 24 hrs) was 1.1 × 10^6 Test-organism/ml. For the same substance, the “number of test organisms” value (Salmonella sp; 48 hrs) was 0 Test-organism/ml, the “number of test organisms” value (Salmonella sp; 72 hrs) was 0 Test-organism/ml and the “number of test organisms” value (Salmonella sp; 96 hrs) was 0 Test-organism/ml. For the same substance, the “number of test organisms” value (Salmonella sp; 168 hrs) was 0 Test-organism/ml, the “time until count reduced to zero” value (Salmonella sp; Salmonella) was ≤ 48 h and the “onset of effect (in words)” value (Pseudomonas aeruginosa [1]) was “significant decrease appeared only from the second day”. For the same substance, the “number of test organisms” value (Pseudomonas aeruginosa [1]; 0 hr) was 2.1 × 10^5 Test-organism/ml, the “number of test organisms” value (Pseudomonas aeruginosa [1]; 24 hrs) was 2.4 × 10^4 Test-organism/ml and the “number of test organisms” value (Pseudomonas aeruginosa [1]; 48 hrs) was 3.0 × 10^3 Test-organism/ml. The “number of test organisms” value (Pseudomonas aeruginosa [1]; 72 hrs) was <100 Test-organism/ml, the “number of test organisms” value (Pseudomonas aeruginosa [1]; 96 hrs) was <100 Test-organism/ml and the “number of test organisms” value (Pseudomonas aeruginosa [1]; 168 hrs) was 0 Test-organism/ml. The “number of test organisms” value (Pseudomonas aeruginosa [2]; 0.1% solution, 0 hr) was 5.5 × 10^5 Test-organism /ml, the “number of test organisms” value (Pseudomonas aeruginosa [2]; 0.1% solution, 24 hrs) was 5.0 × 10^5 Test-organism /ml and the “number of test organisms” value (Pseudomonas aeruginosa [2]; 0.1% solution, 48 hrs) was 2.0 × 10^3 Test-organism /ml. The “number of test organisms” value (Pseudomonas aeruginosa [2]; 0.1% solution, 72 hrs) was <100 Test-organism /ml, the “number of test organisms” value (Pseudomonas aeruginosa [2]; 0.2% solution, 0 hr) was 8.0 × 10^5 Test-organism /ml and the “number of test organisms” value (Pseudomonas aeruginosa [2]; 0.2% solution, 24 hrs) was 5.5 × 10^5 Test-organism /ml. The “number of test organisms” value (Pseudomonas aeruginosa [2]; 0.2% solution, 48 hrs) was 3.0 × 10^3 Test-organism /ml, the “number of test organisms” value (Pseudomonas aeruginosa [2]; 0.2% solution, 72 hrs) was <100 Test-organism /ml and the “number of test organisms” value (Pseudomonas aeruginosa [2]; 0.5% solution, 0 hr) was 1.0 × 10^6 Test-organism /ml. For the same substance, the “number of test organisms” value (Pseudomonas aeruginosa [2]; 0.5% solution, 24 hrs) was 6.0 × 10^5 Test-organism /ml, the “number of test organisms” value (Pseudomonas aeruginosa [2]; 0.5% solution, 48 hrs) was 3.0 × 10^3 Test-organism /ml and the “number of test organisms” value (Pseudomonas aeruginosa [2]; 0.5% solution, 72 hrs) was <100 Test-organism /ml. The “activity compared (in words)” value (Pseudomonas aeruginosa [2]; Tables 4 and 5) was “obviously more effective than sodium hyaluronate solutions”, the “in vitro activity compared (in words)” value ([3]; Helicobacter pylori) was “comparable to the activity of De-Nol” and the MIC ([3]; Helicobacter pylori strain 822/96, 3 to 5 days at 37° C., 5% oxygen, 7 to 8% carbon dioxide) was 500 µg/mL. The “CID (microbicidal concentration)” value (Staphylococcus areus) was 120 µg/mL and the “MIC (minimum inhibitory concentration)” value (Staphylococcus areus) was 40 µg/mL.
